Results taken from ChEMBL document CHEMBL3507680, “University of Dundee, Gates Library screen for HepG2 cell viability”.

assay: Human HepG2 cell viability assay in 384 well format; assay type: toxicity, cell-based; design: dose 125 nL, time 70.5 hour; cytotoxicity at 70.5 h: concentration not given beside the values; conditions: HepG2 cells, read-out: Inhibition

Row | SMILES | cytotoxicity at 70.5 h
1 | CC(C)(C)OC(=O)N1CC(CC(=O)NCc2ccsc2)C1 | 7.8%
2 | CC(=O)Nc1nc(C(=O)NC(C)c2ccc(F)c(F)c2)cs1 (stereo not drawn) | -7.42%
3 | COc1ccc(C(=O)NCCNC(=O)c2scnc2Cl)cc1 | -2.78%
4 | Cc1nn(C)c2ncc(S(=O)(=O)N3CCCC(C)CC3)cc12 (stereo not drawn) | -8.46%
5 | Cc1ccc(-c2noc(CCC(=O)NC(C)Cn3cccn3)n2)cc1 (stereo not drawn) | -7.96%
6 | CCN1CCN(C2CCN(C(C(N)=O)c3ccccc3)CC2)C1=O (stereo not drawn) | 1.23%
7 | CCCc1cc(CN(C)C2CC(C)(C)NC(C)(C)C2)n[nH]1 | -4.42%
8 | Cc1cc(C2CCCN2C(=O)COc2ccc(CC#N)cc2)no1 (stereo not drawn) | -7.35%
9 | O=C1COc2cc(S(=O)(=O)NCCC3=CCCCC3)c(Br)cc2N1 | -8%
10 | O=C(NC1CC1)C1CN(C(=O)c2cnccn2)C1 | -3.98%
11 | CN1CCNC(=O)C1CC(=O)NCCc1cnn(-c2ccccc2)c1 (stereo not drawn) | 19.9%
12 | CS(=O)(=O)N1CCCC12CCCN(S(=O)(=O)c1ccc(F)c(F)c1)C2 (stereo not drawn) | 2.95%
13 | CCS(=O)(=O)CCNC(=O)[C@@]12CNC[C@@H]1CN(C1CCCC1)C2 | -0.64%
14 | Cn1cc(C(=O)N2CCOc3cc(F)ccc32)ccc1=O | -7.98%
15 | COCc1nccc(C2CCCN(Cc3cccc(C#N)c3)C2)n1 (stereo not drawn) | -9.48%
16 | CC(C)CC(=O)NC[C@H]1CC[C@H](C(c2ccccn2)N(C)C)CC1 (stereo partly drawn) | -3.76%
17 | Cc1ccc(C(=O)N(C)Cc2ccc3c(c2)OCCO3)c(=O)[nH]1 | 18.5%
18 | Cc1ccc(CNC(=O)c2nc3c(o2)CN(c2ncccn2)C3)o1 | -2.56%
19 | CCC(C)NC(=O)c1nn(C)c(NC(=O)c2ccccc2OC)c1F (stereo not drawn) | -10.8%
20 | Cc1nc(-c2ccc(CO)cc2)cc(C2CCNCC2)n1 | -2.27%
21 | CCOc1ccc(C#N)cc1NC(=O)N1CCC(N2CCCC2)C1 (stereo not drawn) | -9.59%
22 | Cc1c(C(=O)NCCC(=O)N2CCCC2)cccc1-c1ccccn1 | -17.7%
23 | CCc1[nH]nc(NC(=O)c2cc[nH]n2)c1C | 6.09%

Row | SMILES | cytotoxicity at 70.5 h
24 | CCn1nc(C)c2nnn(CC(=O)Nc3ccc(C)cc3)c(=O)c21 | -4.64%
25 | COCCC(=O)NCCc1nc2cc(-c3ccc(OC)cc3)ncn2n1 | -6.53%
26 | CN(C)C(=O)c1cncnc1-c1ccc(CNC(=O)C2CCCO2)cc1 (stereo not drawn) | 10.6%
27 | CN(C)C(=O)CO[C@H]1CN(Cc2ccc3c(c2)OCO3)[C@@H]2COC[C@H]12 | -4.69%
28 | COc1cc2c(cc1CNC(=O)C(C)n1ccnc1C(C)C)CCC2 (stereo not drawn) | -11.2%
29 | O=C(c1c[nH]c2ncccc12)N(Cc1ccco1)C1CCCC1 | -3.94%
30 | CN(Cc1ccco1)C(=O)Nc1cccnc1N1CCCC1 | -3.81%
31 | COc1ccc2c(c1)CN(Cc1ccco1)C(=O)CCN2 | -10%
32 | Cc1nc(C(=O)NC2CCN(CCOc3ccc(Br)cc3)CC2)cs1 | 1.52%
33 | COCCC(C)NCc1ccccc1-n1ccnc1 (stereo not drawn) | -3.09%
34 | Cc1ccc(OCCn2cnc3oc(C)c(C(=O)O)c3c2=O)cc1 | 19.9%
35 | COC(=O)[C@@H](NC(=O)c1coc(COc2cccc(F)c2)n1)C(C)C | 4.83%
36 | Cc1nc(NS(=O)(=O)c2ccc(C)c(Br)c2)no1 | -12.1%
37 | COCCN1C[C@@H]2CN(c3ncccn3)C[C@@H]2C1=O | -7.68%
38 | Cc1cc(C)cc(CN2CCC3(CC2)CC(Nc2ncccn2)CO3)c1 (stereo not drawn) | -68.4%
39 | COCC1CN(C(=O)CNC(C)=O)Cc2ncnn2C1 (stereo not drawn) | -8.02%
40 | Cc1ccc(NC(=O)N2C[C@H]3CC[C@@H]2CN(Cc2cscn2)C3)cc1 | -6.47%
41 | CC(C)c1noc(CN2CCN(C(=O)OC(C)(C)C)C(C)C2)n1 (stereo not drawn) | 7.76%
42 | Cc1cccc(-n2cnnc2CCCN2CCOCC2)c1 | -7.97%
43 | CC(C)CN1CCCC1c1ccc(C(=O)Nc2cccnc2)s1 (stereo not drawn) | 0.0684%
44 | COc1ccc(C(=O)N2CCCC3(CCCC(=O)N3C)C2)cc1 (stereo not drawn) | -6.78%
45 | O=C(c1nc2c(s1)CCCN2C(=O)C1CC1)N1CCOCC1 | -6.48%
46 | O=C1CC[C@H](C(=O)Nc2cnn(-c3ccccc3Br)c2)N1 | -16.8%

Row | SMILES | cytotoxicity at 70.5 h
47 | c1ccc(CO[C@@H]2CO[C@@]3(CCN(Cc4ccccn4)C3)C2)nc1 | -16%
48 | Cc1cn(CC(=O)NC2CCN(CC3CC3)CC2)c2ccccc12 | -9.9%
49 | Cn1cc(C(=O)NCc2ccc(N3CCNC(=O)C3)c(F)c2)cn1 | -4.04%
50 | CC(=O)NC1CCCN(C(=O)NCc2cc[nH]n2)C1 (stereo not drawn) | -1.94%
51 | Cc1ccc(CN2CCN(C3CCCC3)CC2CCO)o1 (stereo not drawn) | 8.76%
52 | c1ccc(OCCNc2ncnc3sc4c(c23)CCNC4)cc1 | 1.62%
53 | Cn1cc(CN2CCOC3(CCCN(c4cccc(F)c4)C3)C2)cn1 (stereo not drawn) | -7.93%
54 | COc1cccc(C(=O)NCCCN2CCc3ccccc3C2)c1OC | -11.3%
55 | CS(=O)(=O)c1snnc1C1CCN(Cc2ccncc2)CC1 | -7.11%
56 | Cn1cc(CN2CCCN(CCCc3ccccc3)CC2)cn1 | -15.4%
57 | Cc1nn(C)cc1Cn1cc(Cl)c(N)n1 | -1.77%
58 | O=C([C@H]1COC[C@H]2CN(C3CCCCC3)C[C@H]21)N1CCOCC1 | -9.52%
59 | Cc1cc(-c2cnc(N3CCCC(C)C3)nc2-c2cccnc2C)on1 (stereo not drawn) | 23.3%
60 | CCn1nccc1CNC(=O)C1CC1 | -10.1%
61 | CSc1ccccc1CCC1CCS(=O)(=O)C1 (stereo not drawn) | -1.45%
62 | COCc1ncc(-c2nccn2CCn2cnnc2)cn1 | -2.42%
63 | CCc1nnc2n1CCN(C(=O)c1ccc3c(c1)NC(=O)CO3)C2 | -1.73%
64 | N#Cc1ccccc1CN1C[C@@H]2CC[C@H](C1)N(CC1CCC1)C2=O | -4.58%
65 | CCOc1ccc(NCC(=O)NCC(=O)N2CCCC2)c(C(F)(F)F)c1 | -11.7%
66 | O=C(c1ccccn1)N1C[C@H]2CCC[C@@]2(COCC2CCOCC2)C1 | -10.8%
67 | COCCOCC(=O)Nc1ccc(C)cc1Br | -3.99%
68 | Cc1oc(-c2ccsc2)nc1CNC(C)Cn1cccn1 (stereo not drawn) | 11.6%
69 | CN1CCN(C[C@@H]2CN(Cc3c(Cl)cncc3Cl)C[C@@H]2CO)CC1 | -11.7%

Row | SMILES | cytotoxicity at 70.5 h
70 | Cc1c(CCC(=O)N2CCCC2c2ccnc(N(C)C)c2)cnn1C (stereo not drawn) | -1.8%
71 | CN1CCCN(S(=O)(=O)c2cn(C)cn2)c2cc(F)ccc21 | 4.76%
72 | CN1CCCC1CNC(=O)CCOc1ccc(Cl)cc1 (stereo not drawn) | -2.08%
73 | CNc1cc(C(=O)NCCC2=CSC3=NCCCN23)ccn1 | 1.26%
74 | CCSCc1ccc(C(=O)N2CCCN(CC)CC2)cc1 | -10.3%
75 | Cc1nn(CCO)cc1CN1CCC(N2CCC(O)CC2)CC1 | 1.99%
76 | CC(C)(CO)Nc1c(NCc2ccncc2)c(=O)c1=O | -9.44%
77 | Cc1ccc(C(=O)NCc2cccnc2N(C)C)o1 | -12.1%
78 | Cn1c(-c2ccc(F)cc2)cn2cc(C(=O)N3CCC(N)C3)nc2c1=O (stereo not drawn) | -9.46%
79 | CCc1nnc(CN(CC)C(=O)C2CCC(=O)N(C3CCCC3)C2)o1 (stereo not drawn) | -4.66%
80 | CCc1nc2ccccc2n1C(CC)C(=O)N(C)CCc1noc(C)n1 (stereo not drawn) | -20.6%
81 | O=C(NCCCN1CCc2ccccc2C1)c1ccccc1Br | -7.72%
82 | COc1ccccc1OCCCc1cncc(C(N)=O)c1 | -14.6%
83 | Cc1nccn1[C@@H]1CC[C@@H](N(C)S(=O)(=O)c2ccc(F)cc2)[C@H]1O | -3.16%
84 | COCCC1(CO)CCCN(C(=O)c2cccnc2O)C1 (stereo not drawn) | -3.89%
85 | Cc1cccc(CN2C[C@@H]3CN(C(=O)[C@H]4CCCO4)C[C@@H]3C2=O)c1 | -5.16%
86 | CC(C)c1nnc(NC(=O)N(C)Cc2ccncc2)s1 | -9.39%
87 | COCCCNC(=O)CN1CCCC1c1c(C)nn(C)c1Cl (stereo not drawn) | 27.1%
88 | COCCc1noc(CN2CCN(CC(O)c3ccccc3)CC2)n1 (stereo not drawn) | -6.23%
89 | CC(C)c1noc(-c2ccc(NCC3CCCOC3)nc2)n1 (stereo not drawn) | -12.4%
90 | CCOc1ccccc1C(CC(=O)Nc1ccccc1F)NC(C)=O (stereo not drawn) | -6.84%
91 | Cc1cnn(CC2CCCN2CC(=O)N(C)CCC#N)c1 (stereo not drawn) | -7.49%
92 | Cc1cc(C(=O)NCc2ccnc(N3CCN(C)CC3)c2)no1 | -0.337%

Row | SMILES | cytotoxicity at 70.5 h
93 | NC[C@H]1CC[C@H](c2c(C(N)=O)sc3ccccc32)CC1 | -3.54%
94 | CNc1cccc(C2CCCN(C(=O)c3ccncc3)C2)n1 (stereo not drawn) | -2.97%
95 | Cc1ccc(C(CNCc2cnn(C(C)C)c2)N2CCOCC2)s1 (stereo not drawn) | -0.62%
96 | CN(C)C1CCCN(C(=O)NCCC(=O)N2CCCCCC2)C1 (stereo not drawn) | 0.671%
97 | N#Cc1ncn(CCC(=O)Nc2c(Cl)cccc2Cl)n1 | -6.06%
98 | CCCc1noc(CCC(=O)N2CCCC2Cn2cc(C)cn2)n1 (stereo not drawn) | -10.8%
99 | CC(C)CN1CC2(CCN(C(=O)c3cnccn3)CC2)CC1=O | -15%
100 | COC(=O)c1ccc(N2CCN(C(=O)c3ccc(O)nc3)C(C)C2)cc1 (stereo not drawn) | -7.53%
101 | O=C(O)c1ccnc(-c2ccnc(NCCc3nc4c(s3)CCC4)n2)c1 | -6.73%
102 | O[C@@H]1CN(Cc2ccc(F)c(F)c2)CC[C@H]1NCc1ccccn1 | 22.5%
103 | CC(CN1CCOCC1)NCC1CCN(c2cnn(C)c(=O)c2)CC1 (stereo not drawn) | -4.8%
104 | Cc1nn(-c2ccccc2)c2nc(C(C)(C)CN3CCN(C)CC3)[nH]c12 | -1.61%
105 | CC(C)N(CCCNC(=O)C1CC(=O)N(C)C1)S(C)(=O)=O (stereo not drawn) | 33.7%
106 | COc1ccnc(N2CCN(C(=O)Cc3ccn(C(C)C)n3)CC2)n1 | -5.11%
107 | COc1cc(-c2nccn2CCn2cccn2)cc2c1OCO2 | -1.97%
108 | Cc1nnsc1C(=O)NCc1nn(C2CCCC2)c2c1CCCC2 | -5.38%
109 | Cn1cnc2c1C(COCC1CC1)CN(C(=O)Cc1ccsc1)C2 (stereo not drawn) | -3.95%
110 | Cn1cccc1C(=O)N1Cc2c(CN3CCCCC3)nn(C)c2C1 | 0.721%
111 | CCS(=O)(=O)N1CCO[C@H]2[C@H](OCC3CCCC3)CC[C@@H]21 | -13.9%
112 | CCN1CCN(C(=O)c2cn(Cc3ccccc3)c3ncccc23)CC1 | -0.985%
113 | c1csc(-c2nc(CN3CCOC(Cn4cccn4)C3)cs2)c1 (stereo not drawn) | -8.48%
